From patent publication US8247211B2, “Glycopeptide antibiotics” (American Cyanamid Company, priority 2001, dated 2012)
Converted amounts (≈) assume the structure as drawn.

Assays:
Experiment in all cases: In vitro antibacterial evaluation: minimum inhibitory concentration (MIC), broth dilution method
Format in all cases: cell-based
[1] = system: Enterococcus sp.
Summary of the method: (§1)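 First, organisms are seeded at 5×10^5 CFU/mL into Muller-Hinton II […]. Next, antibiotic is applied across 64-0.06 μg/mL by broth dilution (NCCLS M7-A2). Finally, the lowest inhibitory concentration is recorded as MIC.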

[2] = system: Streptococcus sp.
Summary of the method: as §1

[3] = system: Staphylococcus sp.
Summary of the method: as §1

[4] = system: Escherichia coli
Summary of the method: as §1

[5] = broth dilution, 5×10^5 CFU/mL, 18 hours at 35° C.
[6] = strain ATCC 29213, broth dilution, 18 hours at 35° C.
[7] = strain GC 1131, broth dilution, 18 hours at 35° C.
[8] = strain GC 3051, broth dilution, 18 hours at 35° C.
[9] = strain GC 3053, broth dilution, 18 hours at 35° C.
[10] = strain GC 4541, broth dilution, 18 hours at 35° C.
[11] = strain GC 4542, broth dilution, 18 hours at 35° C.
[12] = strain GC 4543, broth dilution, 18 hours at 35° C.
[13] = strain GC 4544, broth dilution, 18 hours at 35° C.
[14] = strain GC 4545, broth dilution, 18 hours at 35° C.
[15] = strain GC 4546, broth dilution, 18 hours at 35° C.
[16] = strain GC 4547, broth dilution, 18 hours at 35° C.
[17] = strain GC 4548, broth dilution, 18 hours at 35° C.
[18] = strain GC 4549, broth dilution, 18 hours at 35° C.
[19] = strain GC 4551, broth dilution, 18 hours at 35° C.
[20] = strain GC 6257, broth dilution, 18 hours at 35° C.
[21] = 5×10^5 CFU/mL, 18 hours at 35° C.

SMILES: CC(c1ccccc1)C1NC(=O)CNC(=O)C(CO)NC(=O)C(C(O)C2CNC(=N)N2C2OC(CO)C(O)C(O)C2O)NC(=O)C(C(O)C2CNC(=N)N2)NC(=O)C(Cc2ccc(OC3OC(CO)C(OC4OC5COC(c6cccc(O)c6)OC5C(O)C4O)C(O)C3O)cc2)NC1=O (stereo not drawn) [Example 136, Cyclo[glycyl-β-methylphenylalanyl-O-[4-O-[4,6-O-(3-hydroxybenzylidene)hexopyranosyl]-hexopyranosyl]tyrosyl-3-(2-iminoimidazolidin-4-yl)seryl-3-(3-hexopyranosyl-2-iminoimidazoliclin-4-yl)serylseryl]]
- MIC Enterococccus avium (GC 4558) [1, 5]: 64 µg/mL (≈ 45.7 µM)
- MIC Enterococccus faecalis (ATCC 29212) [1, 5]: >64 µg/mL
- MIC Enterococccus faecalis (GC 2691) [1, 5]: >64 µg/mL
- MIC Enterococccus faecalis (GC 3059) [1, 5]: >64 µg/mL
- MIC Enterococccus faecalis (GC 4552) [1, 5]: >64 µg/mL
- MIC Enterococccus faecalis (GC 4553) [1, 5]: >64 µg/mL
- MIC Enterococccus faecalis (GC 4554) [1, 5]: >64 µg/mL
- MIC Enterococccus faecalis (GC 6189) [1, 5]: 64 µg/mL (≈ 45.7 µM)
- MIC Enterococccus faecium (GC 2243) [1, 5]: >64 µg/mL
- MIC Enterococccus faecium (GC 4556) [1, 5]: 64 µg/mL (≈ 45.7 µM)
- MIC Enterococccus faecium (GC 4557) [1, 5]: 8 µg/mL (≈ 5.72 µM)
- MIC Enterococcus faecalis (GC 2242) [1, 5]: 64 µg/mL (≈ 45.7 µM)
- MIC Streptococcus agalactiae (GC 4564) [2, 5]: 8 µg/mL (≈ 5.72 µM)
- MIC Streptococcus pneumoniae (GC 1894) [2, 5]: 1 µg/mL (≈ 0.715 µM)
- MIC Streptococcus pneumoniae (GC 4565) [2, 5]: 4 µg/mL (≈ 2.86 µM)
- MIC Streptococcus pneumonine (ATCC 6301) [2, 5]: 2 µg/mL (≈ 1.43 µM)
- MIC Streptococcus pyogenes (GC 4563) [2, 5]: 8 µg/mL (≈ 5.72 µM)
- MIC Coagulase Negative Staphylococcus (GC 4547) [3, 5]: 8 µg/mL (≈ 5.72 µM)
- MIC Coagulase Negative Staphylococcus (GC 4548) [3, 5]: 8 µg/mL (≈ 5.72 µM)
- MIC Coagulase Negative Staphylococcus (GC 4549) [3, 5]: 4 µg/mL (≈ 2.86 µM)
- MIC Coagulase Negative Staphylococcus (GC 4551) [3, 5]: 32 µg/mL (≈ 22.9 µM)
- MIC Coagulase Negative Staphylococcus (GC 6257) [3, 5]: 4 µg/mL (≈ 2.86 µM)
- MIC Staphylococcus aureus-SMITH (GC 4543) [3, 5]: 16 µg/mL (≈ 11.4 µM)
- MIC Staphylococcus haemolyticus (GC 4546) [3, 5]: 16 µg/mL (≈ 11.4 µM)
- MIC Staphylococcus aureus (ATCC 29213) ([3]; strain ATCC 29213): 16 µg/mL (≈ 11.4 µM)
- MIC Staphylococcus aureus (ATCC 29213) [3, 6]: 16 µg/mL (≈ 11.4 µM)
- MIC Staphylococcus aureus (GC 1131) ([3]; strain GC 1131): 16 µg/mL (≈ 11.4 µM)
- MIC Staphylococcus aureus (GC 1131) [3, 7]: 16 µg/mL (≈ 11.4 µM)
- MIC Staphylococcus aureus (GC 3051) ([3]; strain GC 3051): 16 µg/mL (≈ 11.4 µM)
- MIC Staphylococcus aureus (GC 3051) [3, 8]: 16 µg/mL (≈ 11.4 µM)
- MIC Staphylococcus aureus (GC 3053) ([3]; strain GC 3053): 32 µg/mL (≈ 22.9 µM)
- MIC Staphylococcus aureus (GC 3053) [3, 9]: 32 µg/mL (≈ 22.9 µM)
- MIC Staphylococcus aureus (GC 4541) ([3]; strain GC 4541): 8 µg/mL (≈ 5.72 µM)
- MIC Staphylococcus aureus (GC 4541) [3, 10]: 8 µg/mL (≈ 5.72 µM)
- MIC Staphylococcus aureus (GC 4542) ([3]; strain GC 4542): 16 µg/mL (≈ 11.4 µM)
- MIC Staphylococcus aureus (GC 4542) [3, 11]: 16 µg/mL (≈ 11.4 µM)
- MIC Staphylococcus aureus-SMITH (GC 4543) [3, 12]: 16 µg/mL (≈ 11.4 µM)
- MIC Staphylococcus aureus (GC 4544) ([3]; strain GC 4544): 16 µg/mL (≈ 11.4 µM)
- MIC Staphylococcus aureus (GC 4544) [3, 13]: 16 µg/mL (≈ 11.4 µM)
- MIC Staphylococcus aureus (GC 4545) ([3]; strain GC 4545): 16 µg/mL (≈ 11.4 µM)
- MIC Staphylococcus aureus (GC 4545) [3, 14]: 16 µg/mL (≈ 11.4 µM)
- MIC Staphylococcus haemolyticus (GC 4546) [3, 15]: 16 µg/mL (≈ 11.4 µM)
- MIC Coagulase Negative Staphylococcus (GC 4547) [3, 16]: 8 µg/mL (≈ 5.72 µM)
- MIC Coagulase Negative Staphylococcus (GC 4548) [3, 17]: 8 µg/mL (≈ 5.72 µM)
- MIC Coagulase Negative Staphylococcus (GC 4549) [3, 18]: 4 µg/mL (≈ 2.86 µM)
- MIC Coagulase Negative Staphylococcus (GC 4551) [3, 19]: 32 µg/mL (≈ 22.9 µM)
- MIC Coagulase Negative Staphylococcus (GC 6257) [3, 20]: 4 µg/mL (≈ 2.86 µM)
- MIC Escherichia coli (ATCC 25922) [4, 21]: >64 µg/mL
- MIC Escherichia coli (GC 4559) [4, 21]: >64 µg/mL
- MIC Escherichia coli (GC 4560) [4, 21]: 4 µg/mL (≈ 2.86 µM)

SMILES: CC(c1ccccc1)C1NC(=O)CNC(=O)C(CO)NC(=O)C(C(O)C2CNC(=N)N2C2OC(CO)C(O)C(O)C2O)NC(=O)C(C(O)C2CNC(=N)N2)NC(=O)C(Cc2ccc(OC3OC(CO)C(OC4OC5COC(c6cccc(Cl)c6)OC5C(O)C4O)C(O)C3O)cc2)NC1=O (stereo not drawn) [Example 138, Cyclo[glycyl-β-methylphenylalanyl-O-[4-O-[4,6-O-(3-chlorobenzylidene)hexopyranosyl]-hexopyranosyl]tyrosyl-3-(2-iminoimidazolidin-4-yl)seryl-3-(3-hexopyranosyl-2-iminoimidazolidin-4-yl)serylseryl]]
- MIC Enterococcus faecalis (ATCC 29212) ([1]; strain ATCC 29212): 4 µg/mL (≈ 2.82 µM)
- MIC Enterococcus faecalis (GC 2242) ([1]; strain GC 2242): 4 µg/mL (≈ 2.82 µM)
- MIC Enterococcus faecium (GC 2243) ([1]; strain GC 2243): 4 µg/mL (≈ 2.82 µM)
- MIC Enterococcus faecalis (GC 2691) ([1]; strain GC 2691): 8 µg/mL (≈ 5.64 µM)
- MIC Enterococcus faecalis (GC 3059) ([1]; strain GC 3059): 4 µg/mL (≈ 2.82 µM)
- MIC Enterococcus faecalis (GC 4552) ([1]; strain GC 4552): 4 µg/mL (≈ 2.82 µM)
- MIC Enterococcus faecalis (GC 4553) ([1]; strain GC 4553): 8 µg/mL (≈ 5.64 µM)
- MIC Enterococcus faecalis (GC 4554) ([1]; strain GC 4554): 8 µg/mL (≈ 5.64 µM)
- MIC Enterococcus faecium (GC 4556) ([1]; strain GC 4556): 8 µg/mL (≈ 5.64 µM)
- MIC Enterococcus faecium (GC 4557) ([1]; strain GC 4557): 2 µg/mL (≈ 1.41 µM)
- MIC Enterococcus avium (GC 4558) ([1]; strain GC 4558): 4 µg/mL (≈ 2.82 µM)
- MIC Enterococcus faecalis (GC 6189) ([1]; strain GC 6189): 4 µg/mL (≈ 2.82 µM)
- MIC Streptococcus pneumoniae (ATCC 6301) ([2]; strain ATCC 6301): <0.06 µg/mL
- MIC Streptococcus pneumoniae (GC 1894) ([2]; strain GC 1894): <0.06 µg/mL
- MIC Streptococcus pyogenes (GC 4563) ([2]; strain GC 4563): 0.25 µg/mL (≈ 0.176 µM)
- MIC Streptococcus agalactiae (GC 4564) ([2]; strain GC 4564): 0.12 µg/mL (≈ 0.0846 µM)
- MIC Streptococcus pneumoniae (GC 4565) ([2]; strain GC 4565): <0.06 µg/mL
- MIC Coagulase Negative Staphylococcus (GC 4547) [3, 5]: 4 µg/mL (≈ 2.82 µM)
- MIC Coagulase Negative Staphylococcus (GC 4548) [3, 5]: 1 µg/mL (≈ 0.705 µM)
- MIC Coagulase Negative Staphylococcus (GC 4549) [3, 5]: 1 µg/mL (≈ 0.705 µM)
- MIC Coagulase Negative Staphylococcus (GC 4551) [3, 5]: 2 µg/mL (≈ 1.41 µM)
- MIC Coagulase Negative Staphylococcus (GC 6257) [3, 5]: 2 µg/mL (≈ 1.41 µM)
- MIC Staphylococcus aureus (ATCC 29213) [3, 5]: 2 µg/mL (≈ 1.41 µM)
- MIC Staphylococcus aureus (GC 1131) [3, 5]: 2 µg/mL (≈ 1.41 µM)
- MIC Staphylococcus aureus (GC 3051) [3, 5]: 2 µg/mL (≈ 1.41 µM)
- MIC Staphylococcus aureus (GC 3053) [3, 5]: 2 µg/mL (≈ 1.41 µM)
- MIC Staphylococcus aureus (GC 4541) [3, 5]: 2 µg/mL (≈ 1.41 µM)
- MIC Staphylococcus aureus (GC 4542) [3, 5]: 2 µg/mL (≈ 1.41 µM)
- MIC Staphylococcus aureus (GC 4544) [3, 5]: 2 µg/mL (≈ 1.41 µM)
- MIC Staphylococcus aureus (GC 4545) [3, 5]: 2 µg/mL (≈ 1.41 µM)
- MIC Staphylococcus aureus-SMITH (GC 4543) [3, 5]: 1 µg/mL (≈ 0.705 µM)
- MIC Staphylococcus haemolyticus (GC 4546) [3, 5]: 2 µg/mL (≈ 1.41 µM)
- MIC Staphylococcus aureus (ATCC 29213) [3, 6]: 2 µg/mL (≈ 1.41 µM)
- MIC Staphylococcus aureus (GC 1131) [3, 7]: 2 µg/mL (≈ 1.41 µM)
- MIC Staphylococcus aureus (GC 3051) [3, 8]: 2 µg/mL (≈ 1.41 µM)
- MIC Staphylococcus aureus (GC 3053) [3, 9]: 2 µg/mL (≈ 1.41 µM)
- MIC Staphylococcus aureus (GC 4541) [3, 10]: 2 µg/mL (≈ 1.41 µM)
- MIC Staphylococcus aureus (GC 4542) [3, 11]: 2 µg/mL (≈ 1.41 µM)
- MIC Staphylococcus aureus-SMITH (GC 4543) [3, 12]: 1 µg/mL (≈ 0.705 µM)
- MIC Staphylococcus aureus (GC 4544) [3, 13]: 2 µg/mL (≈ 1.41 µM)
- MIC Staphylococcus aureus (GC 4545) [3, 14]: 2 µg/mL (≈ 1.41 µM)
- MIC Staphylococcus haemolyticus (GC 4546) [3, 15]: 2 µg/mL (≈ 1.41 µM)
- MIC Coagulase Negative Staphylococcus (GC 4547) [3, 16]: 4 µg/mL (≈ 2.82 µM)
- MIC Coagulase Negative Staphylococcus (GC 4548) [3, 17]: 1 µg/mL (≈ 0.705 µM)
- MIC Coagulase Negative Staphylococcus (GC 4549) [3, 18]: 1 µg/mL (≈ 0.705 µM)
- MIC Coagulase Negative Staphylococcus (GC 4551) [3, 19]: 2 µg/mL (≈ 1.41 µM)
- MIC Coagulase Negative Staphylococcus (GC 6257) [3, 20]: 2 µg/mL (≈ 1.41 µM)
- MIC Escherichia coli (ATCC 25922) ([4]; strain ATCC 25922): 64 µg/mL (≈ 45.1 µM)
- MIC Escherichia coli (GC 4559) ([4]; strain GC 4559): 64 µg/mL (≈ 45.1 µM)
- MIC Escherichi coli (GC 4560) ([4]; strain GC 4560): 0.5 µg/mL (≈ 0.353 µM)
